Measurements taken from patent publication US20130034497A1, “IODINE-LABELED HOMOGLUTAMIC ACID AND GLUTAMIC ACID DERIVATIVES” (PIRAMAL IMAGING SA, priority 2009, published 2013).

Legend:
[1] = tested on: H460 tumor bearing mice; test: Biodistribution in H460 tumor bearing mice; type: in vivo, NMRI (nu/nu) mice; conditions: for Bilanz/summary Recovery / Bilanz/summary urine: in % (unit assumed)
Procedure: Biodistribution in H460 tumor bearing mice. To test the pharmacokinetic properties of (2S,4S)-2-Amino-4-(4-[I-125]-iodo-benzyl)-pentanedioic acid, the iodinated compound was examined in H460 tumor bearing mice. NMRI (nu/nu) mice were inoculated with H460 tumor cells 8 to 10 days before the biodistribution studies. 185 kBq of activity of the tracer was injected into each mouse. n=3 mice were used at every time point. After injection of the I125-labeled compound, mice were sacrificed at the time points indicated. All organs were removed and radioactivity was determined using a γ-counter. […] Very rapid clearance of radioactivity takes place via the kidneys, with more than 90% of activity being excreted after 30 min p.i.

[2] = tested on: NCl-H460 cells; test: tumor cell uptake/binding experiment with I125-labeled derivative; type: cell-based, human
Procedure: FIG. 6 The time dependence of uptake of (2S,4S)-2-Amino-4-(4-[I-125]-iodo-benzyl)-pentanedioic acid was determined. H460 cells were incubated with 0.25 MBq (2S,4S)-2-Amino-4-(4-[I-125]-iodo-benzyl)-pentanedioic acid for up to 60 min and the cell-bound fraction was determined after 10, 20, 30 and 60 min).
In a next experiment, NCl-H460 cells were incubated with [I125]-labeled (2S,4S)-2-Amino-4-(3-[4-[I-125]-iodophenoxy]propylypentanedioic acid for up to 30 min and the cell-bound fraction was determined. Approximately 12% of applied activity was bound to the cells after 30 min incubation (FIG. 2).
FIG. 2: E xamination of biological activity of (2S,4S)-2-Amino-4-(3-[4-[I-125]-iodophenoxy]propylypentanedioic acid in a tumor cell uptake/binding experiment. (NCl-H460 cells, up to 30 min incubation with I125-labeled derivative).
Cell uptake & Retention of (2S,4S)-2-Amino-4-(4-[1-125]-iodo-benzyl)-pentanedioic acid—For determination of the biological activity of (2S,4S)-2-Amino-4-(4-[I-125]-iodo-benzyl)-pentanedioic acid, the I-125 labeled compound was used as tracer in a cell uptake experiment using H460 (human NSCLC) cells. Approximately 100.000 cells were incubated with 0.25 MBq (2S,4S)-2-Amino-4-(4-[I-125]-iodo-benzyl)-pentanedioic acid for up to 60 minutes in PBS-buffer containing 0.1% BSA and the cell-bound fraction was determined. […] Approximately 22,3% of applied dose was taken up by the cells during the 60 min incubation period (see FIG. 6).

[3] = tested on: NCl-H460 (human NSCLC) tumor bearing nude-mice; test: SPECT imaging in tumor bearing nude-mice; type: in vivo, nude-mice (NMRI nu/nu); conditions: approx. 10 MBq; images acquired at 60 min p.i. for 35 min
Procedure: FIG. 8 SPECT imaging with (2S,4S)-2-Amino-4-(4-[I-125]odo-benzyl)-pentanedioic acid after injection into H460 tumor bearing mouse.
SPECT imaging. (2S,4S)-2-Amino-4-(4-[I-125]-iodo-benzyl)-pentanedioic acid was examined in NCl-H460 (human NSCLC) tumor bearing nude-mice (NMRI nu/nu). Approx. 10 MBq of (2S,4S)-2-Amino-4-(4-[I-125]-iodo-benzyl)pentanedioic acid was injected into the mouse. SPECT imaging was performed using a γ-camera (Nucline SPIRIT DH-V). Images were aquired at 60 min p.i. for 35 min with 60 sec/frame.

[4] = tested on: H460 tumor cells; test: retention of activity in tumor cells (efflux); type: cell-based, human; conditions: H460 cells loaded 30 min; after 30 min in new PBS-buffer (efflux conditions)
Procedure: FIG. 7 Examination of retention of (2S,4S)-2-Amino-4-(4-[I-125]odo-benzyl)-pentanedioic acid in H460 tumor cells. H460 cells were loaded with 0.25 MBq (2S,4S)-2-Amino-4-(4-[I-125]-iodo-benzyl)-pentanedioic acid for 30 min in PBS/BSA. After washing, the cells were incubated with new buffer (without radioactivity) for additional 10, 20, 30 min. The release of radioactivity into the supernatant as well as the retention inside the cells was determined.
In a second experiment, the retention of activity in tumor cells was examined. H460 cells were loaded with 0.25 MBq (2S,4S)-2-Amino-4-(4-[I-125]-iodo-benzyl)-pentanedioic acid for 30 minutes in PBS/BSA-buffer. After this uptake, the buffer was removed and the cells were washed with PBS. The cells were then incubated with new PBS-buffer (without activity) for up to 30 min. The release of activity into the supernatant as well as the retention of activity inside the cells was examined. It was discovered, that more than 75% of activity were retained in the tumor cells after 30 min under these efflux conditions (see FIG. 7).

[5] = tested on: NCl-H460 (human NSCLC) tumor cells; test: cell competition experiment with 3H-glutamic acid as tracer, NCl-H460 cells; type: cell-based
Procedure: FIG. 9 Examination of biological activity of (S)-2-Amino-5-(4-iodobenzyl)-hexanedioic acid in a cell-competition-experiment (H460 cells, 30 min incubation with 3H-glutamic acid in PBS-Puffer, concentration of competitor 1 mM and 0.1 mM).
The specificity of binding to NCl-H460 (human NSCLC) tumor cells was examined using 3H-Glutamic acid as tracer and (2S,4S)-2-Amino-4-(3-[4-iodophenoxy]propyl)-pentanedioic acid in concentrations ranging from 4 μM to 1 mM.
(§1) The specificity of binding was examined in a cell competition experiment using 3H-glutamic acid as tracer and (2S,4S)-2-Amino-4-(4-iodo-benzyl)-pentanedioic acid in excess (1 mM) to compete for transporter.
FIG. 1: Concentration dependent blocking of 3H-Glutamic acid uptake in H460 cells using different concentrations of (2S,4S)-2-Amino-4-(3-[4-iodophenoxy]propyl)-pentanedioic acid.
(§2) FIG. 4: Examination of biological activity of (2S,4S)-2-Amino-4-(4-iodo-benzyl)-pentanedioic acid in a cell competition experiment. (NCl-H460 cells, A549 cells, 10 min incubation with 1 μCi 3H-Glutamic acid in PBS-buffer, concentration of test compound 1 mM).
The ability of (S)-2-Amino-5-(4-iodobenzyl)-hexanedioic acid to compete with uptake of glutamic acid into tumor cells was examined. Therefore, tumor cells were co-incubated with 3H-labeled glutamic acid and (S)-2-Amino-5-(4-iodobenzyl)-hexanedioic acid. This compounds was used in large excess to the tracer 3H-glutamic acid. Two concentrations were examined (1mM an 0.1 mM).

[6] = tested on: A549 (human NSCLC cell line); test: cell competition experiment with 3H-glutamic acid as tracer, A549 cells; type: cell-based; conditions: test compound 1 mM, 10 min incubation with 1 μCi 3H-Glutamic acid in PBS-buffer
Procedure: as §1, §2

[7] = tested on: NCl-H460 cells; test: cell competition experiment with I125-labeled derivative as tracer; type: cell-based, human
Procedure: To determine the specificity of (2S,4S)-2-Amino-4-(4-hydroxy-3-[1-125]-iodobenzyl)-pentanedioic acid, the compound was used as tracer in a cell competition experiment in H460 tumor cells against an excess of L-Glutamic acid (1 mM).
FIG. 3: Examination of biological activity of (2S,4S)-2-Amino-4-(3-[4-[I-125]-iodophenoxy]propylypentanedioic acid in a cell competition experiment. (NCl-H460 cells, 30 min incubation with I125-labeled derivative in PBS-buffer, concentration of “cold” derivative 1 mM).
FIG. 5: Determination of biological activity of (2S,4S)-2-Amino-4-(4-hydroxy-3-[I-125]-iodobenzyl)-pentanedioic acid in a cell competition experiment. (NCl-H460 cells, 10 min incubation with [I125]-labeled derivative in PBS-buffer, concentration of L-Glutamate 1 mM).

`N[C@@H](C[C@H](Cc1ccc([125I])cc1)C(=O)O)C(=O)O` [(2S,4S)-2-Amino-4-(4-[I-125]-iodo-benzyl)-pentanedioic acid] showed a Bilanz/summary carcass ([1]; 0.5 h) of 3.4%, a Bilanz/summary organs ([1]; 0.5 h) of 10.2% and a blood ([1]; 0.5 h) of 0.28 % Dosis/g. For the same compound, the gallbladder ([1]; 0.5 h) was 8.09 % Dosis/g, the intestine ([1]; 0.5 h) was 1.26 % Dosis/g and the kidney ([1]; 0.5 h) was 2.14 % Dosis/g. The liver ([1]; 0.5 h) was 0.25 % Dosis/g, the pancreas ([1]; 0.5 h) was 0.62 % Dosis/g and the thyroid ([1]; 0.5 h) was 0.43 % Dosis/g. The tumor ([1]; 0.5 h) was 4.12 % Dosis/g, the “Bilanz/summary Recovery” value ([1]; 0.5 h) was 112.7 and the Bilanz/summary urine ([1]; 0.5 h) was 99.1. The “uptake in the tumor” value ([1]; 30 min p.i., 185 kBq) was 4.12 % injected dose per gram of tumor, the Bilanz/summary carcass ([1]; 1 h) was 2.2% and the Bilanz/summary faeces ([1]; 1 h) was 0.7%. For the same compound, the Bilanz/summary organs ([1]; 1 h) was 6.8%, the blood ([1]; 1 h) was 0.13 % Dosis/g and the gallbladder ([1]; 1 h) was 5.00 % Dosis/g. It also gave an intestine ([1]; 1 h) of 0.85 % Dosis/g, a kidney ([1]; 1 h) of 0.83 % Dosis/g and a liver ([1]; 1 h) of 0.07 % Dosis/g. For the same compound, the pancreas ([1]; 1 h) was 0.12 % Dosis/g, the thyroid ([1]; 1 h) was 0.72 % Dosis/g and the tumor ([1]; 1 h) was 3.68 % Dosis/g. The “Bilanz/summary Recovery” value ([1]; 1 h) was 109.3, the Bilanz/summary urine ([1]; 1 h) was 99.6 and the Bilanz/summary carcass ([1]; 2 h) was 1.1%. For the same compound, the Bilanz/summary faeces ([1]; 2 h) was 2%, the Bilanz/summary organs ([1]; 2 h) was 3.8% and the blood ([1]; 2 h) was 0.08 % Dosis/g. For the same compound, the gallbladder ([1]; 2 h) was 4.73 % Dosis/g, the intestine ([1]; 2 h) was 0.78 % Dosis/g and the kidney ([1]; 2 h) was 0.24 % Dosis/g. For the same compound, the liver ([1]; 2 h) was 0.03 % Dosis/g, the pancreas ([1]; 2 h) was 0.06 % Dosis/g and the thyroid ([1]; 2 h) was 0.42 % Dosis/g. The tumor ([1]; 2 h) was 1.90 % Dosis/g, the “Bilanz/summary Recovery” value ([1]; 2 h) was 109.7 and the Bilanz/summary urine ([1]; 2 h) was 102.8. For the same compound, the Bilanz/summary carcass ([1]; 4 h) was 0.5%, the Bilanz/summary faeces ([1]; 4 h) was 0.1% and the Bilanz/summary organs ([1]; 4 h) was 2.8%. For the same compound, the blood ([1]; 4 h) was 0.06 % Dosis/g, the gallbladder ([1]; 4 h) was 6.63 % Dosis/g and the intestine ([1]; 4 h) was 1.32 % Dosis/g. For the same compound, the kidney ([1]; 4 h) was 0.10 % Dosis/g, the liver ([1]; 4 h) was 0.03 % Dosis/g and the pancreas ([1]; 4 h) was 0.03 % Dosis/g. The thyroid ([1]; 4 h) was 1.05 % Dosis/g, the tumor ([1]; 4 h) was 1.55 % Dosis/g and the “Bilanz/summary Recovery” value ([1]; 4 h) was 115.3. The Bilanz/summary urine ([1]; 4 h) was 111.9, the “activity excreted via the kidneys” value ([1]; after 30 min p.i.) was “more than 90 % of activity” and the “uptake by the cells” value ([2]; H460 cells, 0.25 MBq, 60 min incubation, PBS-buffer containing 0.1% BSA) was “Approximately 22,3 % of applied dose”. For the same compound, the “time dependence of uptake” value ([2]; H460 cells, 0.25 MBq, up to 60 min, PBS-buffer containing 0.1% BSA) was “A time-dependent uptake was observed”, the “tumor visibility in SPECT-images” value [3] was “The tumor was very well visible” and the “activity retained in the tumor cells” value [4] was “more than 75 % of activity”.

For `N[C@@H](CCC(Cc1ccc(I)cc1)C(=O)O)C(=O)O` (stereo partly drawn) [(S)-2-Amino-5-(4-iodobenzyl)-hexanedioic acid], the “uptake of 3H-glutamic acid” value ([5]; H460 cells, 30 min incubation, competitor 1 mM and 0.1 mM) was “strongly reduces the uptake of glutamic acid”.

`N[C@@H](C[C@H](Cc1ccc(I)cc1)C(=O)O)C(=O)O` [(2S,4S)-2-Amino-4-(4-iodo-benzyl)-pentanedioic acid] was tested, and the “uptake of 3H-glutamic acid” value ([5]; NCl-H460 cells, test compound 1 mM, 10 min incubation with 1 μCi 3H-Glutamic acid in PBS-buffer) was “able to reduce the uptake of glutamic acid” and the “uptake of 3H-glutamic acid” value [6] was “able to reduce the uptake of glutamic acid”.

In the case of `N[C@@H](C[C@H](CCCOc1ccc([125I])cc1)C(=O)O)C(=O)O` [(2S,4S)-2-Amino-4-(3-[4-[I-125]-iodophenoxy]propyl)-pentanedioic acid], the cell-bound fraction ([2]; NCl-H460 cells, after 30 min incubation) is reported as “Approximately 12 % of applied activity” and the “binding of I125 tracer with cold derivative in excess” value ([7]; NCl-H460 cells, 30 min incubation in PBS-buffer, cold derivative 1 mM) is reported as “a large decrease in binding was observed”.

`N[C@@H](C[C@H](Cc1ccc(O)c([125I])c1)C(=O)O)C(=O)O` [(2S,4S)-2-Amino-4-(4-hydroxy-3-[I-125]-iodobenzyl)-pentanedioic acid] was tested, and the “uptake of I125 tracer against excess of L-Glutamic acid” value ([7]; H460 cells, 10 min incubation in PBS-buffer, L-Glutamate 1 mM) was “the uptake was blockable by excess of glutamic acid”.

For `N[C@@H](C[C@H](CCCOc1ccc(I)cc1)C(=O)O)C(=O)O` [(2S,4S)-2-Amino-4-(3-[4-iodophenoxy]propyl)-pentanedioic acid], the “uptake of 3H-glutamic acid (blocking)” value ([5]; NCl-H460 cells, test compound 4 μM to 1 mM) was “able to reduce the uptake of glutamic acid in NCl-H460 cells in a concentration dependent manner”.
